The values that follow are results of earlier work, collected in patent EP2583674A2, “ACECLOFENAC SLOW-RELEASE PREPARATION PROVIDING AN OPTIMUM PHARMACOLOGICAL CLINICAL EFFECT WHEN ADMINISTERED ONCE A DAY” (Korea United Pharm, Inc., priority 2010, dated 2011).

SMILES strings stand for the structures.

[1] abbreviates: aceclofenac and the metabolites thereof.

In the case of `O=C(O)COC(=O)Cc1ccccc1Nc1c(Cl)cccc1Cl` [aceclofenac, 2-[(2,6-dichlorophenyl)amino]-phenylacetoxyacetic acid], under setting [1], the excreted through stool entry is recorded as “approximately 20%” and the excreted through urine result is reported as “approximately 70%”. Also, the “excretion rate (half-life)” value (in vivo) is “approximately 4 hours”. Moreover, under “orally administered”, the duration entry is recorded as “approximately 12 hours” and the onset time is at most 30 min.
